Measurements from patent US20060165603A1, “Solubilisation of drugs in hfa propellant by means of emulsions” (Chiesi Farmaceutici S.p.A., priority 2002, published 2006).
Structures can show the parent of a compound that is named as a salt.

Tests used:
[1] = Emulsion formation of pMDI formulations in HFA propellant (visual); assay type: physicochemical; settings: 5% w/w water, 25 μg/50 μl drug; for Comment (emulsion formation): HFA227
Method: (§1) Samples were prepared in clear glass formulation vials. The surfactants were added first followed by water then the other components of the formulation were added and the weight of bottle recorded after each addition. Final compositions were calculated as percentage w/w. Valves were crimped onto plastic-coated bottles or anodized aluminium cans before being placed in a sonicator for 5 minutes to allow as much dissolution of surfactants in the water as possible. The propellant was filled through the valve and the final weight of the packaged formulation recorded. In the case of the emulsions the packaged formulations were either shaken vigorously by hand or gently warmed in the hand (sonication where necessary) to induce an emulsion.
The surfactants used for these formulations are a Span85/AOT blend and the Synperonics L64.

[2] = Microemulsion formation / appearance of formulations in HFA227; assay type: physicochemical; settings: 10% surfactant, 20% EtOH, HFA 227, 5% w/w water
Method: as §1, with “emulsion. For the microemulsion formulations the same method was used except the ethanol was added just before crimping and no sonication was required after HFA addition as a clear formulation was obtained immediately.” for “emulsion.”
The following table 3 lists the various microemulsion formulations prepared with Synperonic L64, AOT, and the fluorinated surfactant Zonyl FSN. L64 and Zonyl FSN produced clear systems.

Molecule	Comment (emulsion formation) ([1]; 0.1% Span85, 0.05% AOT)	Emulsion formation, HFA 134a ([1]; 0.1% Synperonic L64)	Emulsion formation, HFA 227 ([1]; 0.1% Synperonic L64)	Comment (emulsion formation) ([1]; 0.4% Span85, 0.05% AOT)	Emulsion formation, HFA 134a ([1]; 0.5% Synperonic L64)	Emulsion formation, HFA 227 ([1]; 0.5% Synperonic L64)	Emulsion formation, HFA 134a ([1]; 1% Synperonic L64)	Emulsion formation, HFA 227 ([1]; 1% Synperonic L64)	Comment (emulsion formation) ([1]; 0.1% Span85, 0.01% AOT)	Comment (microemulsion formulation appearance) [2]
CN1CCc2cccc3c2[C@H]1Cc1ccc(O)c(O)c1-3 [Apomorphine Hydrochloride, apomorphine hydrochloride]	Emulsion	Emulsion	Emulsion	Emulsion	Emulsion	Emulsion	Emulsion	Emulsion		
CCC(=O)Oc1ccc2c(c1)CC[C@@H]1[C@@H]2CC[C@]2(C)[C@@H](OC(=O)CC)CC[C@@H]12 [Oestradiol Dipropionate, oestradiol dipropionate]	Emulsion	Emulsion			Emulsion	Immediate emulsion	Emulsion	Immediate emulsion	Emulsion	
sodium dioctylsulpho-succinate [AOT]										Slight cloud, one apparent phase
